Laboratory results reported in paper PMC11078216, “Discovery of potent and selective activity-based probes (ABPs) for the deubiquitinating enzyme USP30” (RSC Chemical Biology, 2024).

Molecular target: T1, CTSZ (Homo sapiens, UniProt Q9UBR2)
T1 construct: endogenous in cells; host or cells: HEK293T
Experiment: ABPP chemical proteomics (LC-MS/MS) in HEK293T cells
Assay type: cell-based
Experimental: To explore the selectivity of IMP-2587 and IMP-2586 across the whole proteome, we performed quantitative activity-based protein profiling (ABPP) in HEK293T cells following treatment with IMP-2587 or IMP-2586 (Fig. 3a). After ABP incubation, cells were lysed, and probe-labelled proteins were ligated to biotinylated capture reagents.[27] […] USP30 was outcompeted by corresponding parent inhibitors for each ABP (Fig. 5b and d and Tables S3 and S5, ESI ^†), confirming the high potency and rapid engagement of IMP-2587 and IMP-2586 in cells. […] DESI1 and DESI2 are small ubiquitin-related modifier (SUMO) proteases,[3,29–32] and IMP-2587 and IMP-2586 may offer a starting point for future development of DESI ABPs. […]
The cells were washed with PBS and lysed with lysis buffer (50 μL (1% (v/v) Triton X-100, 0.1% (w/v) sodium dodecyl sulfate (SDS), EDTA-free complete protease inhibitor cocktail (1×, Roche) in PBS on ice for 10 min. The lysates were scraped and transferred to corresponding Lo-Bind Eppendorfs. Each lysate was sonicated for 1 minute, and the samples centrifuges at 5,000 x g at 4 °C for 5 minutes to pellet insoluble cellular debris. The supernatant was collected, and protein concentration was determined using the DC Protein Assay (Bio-Rad) as per manufacturer’s instructions, and normalised to lowest concentrated sample (e.g. 1 mg/mL, using lysis buffer). […]

T1 sequence (Q9UBR2 62-303): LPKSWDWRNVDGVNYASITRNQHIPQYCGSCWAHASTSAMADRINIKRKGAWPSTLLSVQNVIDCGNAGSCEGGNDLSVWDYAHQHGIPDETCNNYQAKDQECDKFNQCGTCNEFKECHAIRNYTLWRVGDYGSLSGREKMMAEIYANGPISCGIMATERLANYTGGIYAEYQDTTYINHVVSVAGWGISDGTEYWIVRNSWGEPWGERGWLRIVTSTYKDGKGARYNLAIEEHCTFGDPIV

Compound | Difference (log2 fold change of enrichment) (IMP-2587 labelling vs DMSO, 30 nM, 10 min, HEK293T (Table S2, Fig.5a)) | Difference (log2 fold change of enrichment) (compound 1 out-competition with IMP-2587 labelling, HEK293T (Table S3, Fig.5b))
C#Cc1cccc(-c2cc(NC(=O)CC3CCN(C#N)C3)on2)c1 (centres unmarked) [IMP-2587] | 2.29 | –
N#CN1CC[C@H](CC(=O)Nc2cc(-c3cccc(Cl)c3)no2)C1 [compound 1, reference compound] | – | -2.01
